These are literature values, as cited in patent US5792763A, “Serotonin 5-HT1F agonists” (Eli Lilly and Company, priority 1997, dated 1998).

SMILES strings stand for the structures.

The conditions of series [1]: background section.
The test system of series [2] is cephalic vascular smooth muscle. As to conditions: background section.
The conditions of series [3]: background section. The source holds these as a separate data set.
Another series has as its system neurogenic inflammation. As to conditions: background section.

On to `CNS(=O)(=O)Cc1ccc2[nH]cc(CCN(C)C)c2c1` [sumatriptan], for which the “crossing of the blood-brain barrier” value in series [1] is “does not cross the blood-brain barrier”. Also, in series [2], the “contraction of cephalic vascular smooth muscle” value was “contract cephalic vascular smooth muscle”. In addition, the “effectiveness in the treatment of migraine” value in series [3] is “effective in the treatment of migraine”. The “blockade of neurogenic inflammation” value in the series with neurogenic inflammation is “blocked”.
